| melting point | Compound |
| --- | --- |
| 87 to 90 °C | CS(=O)(=O)c1ccc(-n2nc(C(F)(F)F)cc2-c2ccc(C#CCCCO)cc2)cc1 [Example 17, 5-[4-(5-Hydroxy-1-Pentyn-1-yl)Phenyl]-1-[4-(Methylsulfonyl)Phenyl]-3-Trifluoromethyl-1H-Pyrazole] |
| 96 to 98 °C | CCCCC#Cc1ccc(-c2cc(C(F)(F)F)nn2-c2ccc(S(C)(=O)=O)cc2)cc1 [Example 16, 5-[4-(1-Hexyn-1-yl)Phenyl]-1-[4-(Methylsulfonyl)Phenyl]-3-Trifluoromethyl-1H-Pyrazole] |
| 170 to 172 °C | CS(=O)(=O)c1ccc(-n2nc(C(F)(F)F)cc2-c2ccc(C#Cc3ccccc3)cc2)cc1 [Example 15, 1-[4-(Methylsulfonyl)Phenyl]-5-[4-(Phenylethynyl)Phenyl]-3-Trifluoromethyl-1H-Pyrazole] |

From US6506779B1, “Acetylene derivatives as anti-inflammatory/analgesic agents” (Pfizer Inc., priority 1999, dated 2003)
